Data reported in patent US5401647A, “Method of preparing Limulus amoebocyte lysate” (Seikagaku Kogyo Kabushiki Kaisha (Seikagaku Corporation), priority 1990, dated 1995).

Biological target: T1, Limulus amoebocyte lysate factor G (Tachypleus tridentatus, UniProt Q27082)
T1 construct: Prepared from Japanese horseshoe crab, T. tridentatus; from tissue; host or cells: amoebocyte (hemocyte) lysate of the Japanese horseshoe crab T. tridentatus, factor G fraction
T1 sequence (Q27082 20-673): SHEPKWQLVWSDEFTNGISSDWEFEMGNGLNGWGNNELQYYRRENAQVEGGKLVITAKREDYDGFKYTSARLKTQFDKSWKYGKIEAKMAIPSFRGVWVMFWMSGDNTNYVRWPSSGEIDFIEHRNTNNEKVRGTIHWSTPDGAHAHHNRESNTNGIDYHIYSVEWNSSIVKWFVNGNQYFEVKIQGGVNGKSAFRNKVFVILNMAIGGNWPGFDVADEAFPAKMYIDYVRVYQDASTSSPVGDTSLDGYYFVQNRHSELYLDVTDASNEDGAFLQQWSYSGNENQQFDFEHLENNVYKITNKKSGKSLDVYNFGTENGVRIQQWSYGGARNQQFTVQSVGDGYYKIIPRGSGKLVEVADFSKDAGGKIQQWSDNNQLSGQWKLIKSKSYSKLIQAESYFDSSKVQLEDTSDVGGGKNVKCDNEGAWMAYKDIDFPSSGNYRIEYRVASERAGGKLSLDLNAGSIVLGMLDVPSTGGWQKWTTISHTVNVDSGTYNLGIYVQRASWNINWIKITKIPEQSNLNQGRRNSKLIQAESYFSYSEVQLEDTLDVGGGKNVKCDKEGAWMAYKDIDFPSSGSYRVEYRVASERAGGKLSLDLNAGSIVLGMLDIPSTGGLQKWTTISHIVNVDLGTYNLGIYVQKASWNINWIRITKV
T1 sequence (Q27083 32-309 partner): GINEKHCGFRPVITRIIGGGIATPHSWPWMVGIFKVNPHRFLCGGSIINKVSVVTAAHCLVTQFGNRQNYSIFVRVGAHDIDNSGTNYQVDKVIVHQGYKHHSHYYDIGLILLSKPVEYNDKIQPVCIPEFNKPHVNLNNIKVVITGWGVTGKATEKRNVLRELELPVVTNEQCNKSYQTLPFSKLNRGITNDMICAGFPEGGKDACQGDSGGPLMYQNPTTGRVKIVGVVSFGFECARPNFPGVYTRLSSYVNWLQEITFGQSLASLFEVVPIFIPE
Test: Activation titer determination method of factor G activation inhibiting substance (GI)
Assay type: biochemical, T. tridentatus
Conditions: 10 pg GA (No. 106); 37° C., 30 minutes; GI amount causing 100% inhibition of factor G activation = 100 units
Method: The factor G activation inhibitory titer was measured according to the following activation titer determination method of factor G activation inhibiting substance and represented as units per mg. Activation titer determination method of factor G activation inhibiting substance (hereinafter, sometimes abbreviated as GI)
A 200 μl portion of a reaction mixture has the following composition. […]
After incubating the above-described reaction mixture at 37° C. for 30 minutes, 0.5 ml each of 0.04% sodium nitrite (0.48M HCl solution), 0.3% ammonium sulfamate and 0.07% N-1-naphthylethylenediamine dihydrochloride was added to the reaction mixture to effect coloration by diazo-coupling. The amount of released pNA was determined by measuring an absorbance at 545 nm (A545). GI activity was calculated according to the following equation; [formula]
Under these conditions, the GI amount which causes 100% inhibition of an activation of factor G by GA is defined as 100 units.
(Note 1) Water-insoluble samples are dissolved in 0.3M NaOH and neutralized with an equal volume of 0.3M HCl.
(Note 2) GPC fractionation-purified product of the curdian sonicated product prepared in the above-described Preparation Example 5 (Table-2, No. 106, molecular weight 216,000).
(Note 3) Prepared from Japanese horseshoe crab, T. tridentatus according to the article [T. Obayasi et al., Clin. Chim. Acta., 149, 55-65 (1985)].

Molecule | Factor G Activation Inhibitory Titer
OC[C@H]1O[C@@H](O[C@H]2[C@H](O)[C@@H](CO)OC(O)[C@@H]2O)[C@H](O)[C@@H](O)[C@@H]1O (some centres unmarked) [compound 5, Laminaribiose] | 214 unit/mg
Partially carboxymethylated (1→3)-β-D-glucan (DS = 0.03) GPC fraction 3 [Sample No. 41] | 80,000 unit/mg
OC[C@H]1O[C@@H](O[C@@H]2[C@@H](O)[C@H](O[C@@H]3[C@@H](O)[C@H](O[C@@H]4[C@@H](O)[C@H](O[C@@H]5[C@@H](O)[C@H](O[C@@H]6[C@@H](O)[C@H](O[C@H]7[C@H](O)[C@@H](CO)OC(O)[C@@H]7O)O[C@H](CO)[C@H]6O)O[C@H](CO)[C@H]5O)O[C@H](CO)[C@H]4O)O[C@H](CO)[C@H]3O)O[C@H](CO)[C@H]2O)[C@H](O)[C@@H](O)[C@@H]1O (some centres unmarked) [compound 10, Laminariheptaose] | 103,000 unit/mg
OC[C@H]1O[C@@H](O[C@@H]2[C@@H](O)[C@H](O[C@@H]3[C@@H](O)[C@H](O[C@@H]4[C@@H](O)[C@H](O[C@@H]5[C@@H](O)[C@H](O[C@H]6[C@H](O)[C@@H](CO)OC(O)[C@@H]6O)O[C@H](CO)[C@H]5O)O[C@H](CO)[C@H]4O)O[C@H](CO)[C@H]3O)O[C@H](CO)[C@H]2O)[C@H](O)[C@@H](O)[C@@H]1O (some centres unmarked) [compound 9, Laminarihexaose] | 55,000 unit/mg
Partially carboxymethylated (1→3)-β-D-glucan (DS = 0.03) GPC fraction 1 [compound 39] | 117,000 unit/mg
Partially carboxymethylated (1→3)-β-D-glucan (DS = 0.03) GPC fraction 2 [compound 40] | 91,200 unit/mg
OC[C@H]1O[C@@H](O[C@@H]2[C@@H](O)[C@H](O[C@H]3[C@H](O)[C@@H](CO)OC(O)[C@@H]3O)O[C@H](CO)[C@H]2O)[C@H](O)[C@@H](O)[C@@H]1O (some centres unmarked) [compound 6, Laminaritriose] | 4,670 unit/mg
Partially carboxymethylated laminaran [compound 42] | 3,630,000 unit/mg
OC[C@H]1O[C@@H](O[C@@H]2[C@@H](O)[C@H](O[C@@H]3[C@@H](O)[C@H](O[C@@H]4[C@@H](O)[C@H](O[C@H]5[C@H](O)[C@@H](CO)OC(O)[C@@H]5O)O[C@H](CO)[C@H]4O)O[C@H](CO)[C@H]3O)O[C@H](CO)[C@H]2O)[C@H](O)[C@@H](O)[C@@H]1O (some centres unmarked) [compound 8, Laminaripentaose] | 39,800 unit/mg
OC[C@H]1O[C@@H](O[C@@H]2[C@@H](O)[C@H](O[C@@H]3[C@@H](O)[C@H](O[C@H]4[C@H](O)[C@@H](CO)OC(O)[C@@H]4O)O[C@H](CO)[C@H]3O)O[C@H](CO)[C@H]2O)[C@H](O)[C@@H](O)[C@@H]1O (some centres unmarked) [compound 7, Laminaritetraose] | 20,000 unit/mg
OC[C@H]1OC(O)[C@H](O)[C@@H](O)[C@@H]1O (some centres unmarked) [compound 108, Glucose] | < 100 unit/mg
Partially carboxymethylated (1→3)-β-D-glucan (DS = 1.20) [compound 107] | < 100 unit/mg
Partially methylated (1→3)-β-D-glucan [compound 43] | 93,300 unit/mg
Partially sulfated laminaran [compound 44] | 117,000 unit/mg
